According to patent US20260008815A1, “CYCLIC PEPTIDE OR SALT THEREOF, AND USES THEREOF” (FUJIFILM Corporation, priority 2023, published 2026):
Bridge positions count the residues as written; N and C are the ends. Ends that are not written are not given here. COCH2 = acetyl group that carries the bridge

Experiments:
[1] = system: BaF3 cells stably expressing FGFR (bovine); experiment: BaF3 cell proliferation-promoting effect; type: cell-based; conditions: number of viable cells at the addition concentration (0.001 to 10 nmol/L) giving the largest number; 2 nights; negative control about 100 cells/well
Experimental: (§1) The FGFR phosphorylation ability of the cyclic peptide complex was evaluated using the BaF3 cell proliferation-promoting effect in which FGFR was stably expressed.
(§2) BaF3 cells stably expressing FGFR were established by introducing a vector (human: Sino Biologicals, HG10824-UT, bovine: sequence of Accession No. F1MNW2 was introduced into pCDNA3.1/Hygro(+) Mammalian Expression Vector (Thermo, V87020), porcine: sequence of Accession No. A0A4X1SNN3 was introduced into pCDNA3.1/Hygro(+) Mammalian Expression Vector (Thermo, V87020), and avian: sequence of Accession No. A0A8V0XB17 was introduced into pCDNA3.1/Hygro(+) Mammalian Expression Vector (Thermo, V87020)) into which FGFR gene had been incorporated, into BaF3 cells using NucleoFector (Lonza) and performing drug selection of cells into which the FGFR gene had been introduced using hygromycin.
(§3) The evaluation of the proliferation-promoting effect of BaF3 cells in which FGFR is stably expressed was performed by the following method. First, RPMI-1640 with L-Glutamine and Phenol Red (FUJIFILM Wako Pure Chemical Corporation, 189-02025) and Fetal Bovine Serum (Thermo, 10270-106) were mixed at a volume ratio of 9:1, and then heparin (STEM CELL, 07980) was added thereto such that the final concentration thereof was 8 μg/mL, thereby preparing a culture medium for evaluation (hereinafter, described as RPMI (10% FBS) medium). Next, the BaF3 cells in which FGFR had been stably expressed were washed twice with RPMI (10% FBS) culture medium, suspended in RPMI (10% FBS) culture medium in which the cyclic peptide complex had been dissolved to a final concentration of 0.001 to 10 nmol/L, and seeded in a 384-well plate. In this case, a condition in which the cyclic peptide complex was not added as a negative control was prepared. After culturing at 37° C. (5% CO2) for 2 nights, Hoechst 33342, Trihydrochloride, Trihydrate-10 mg/mL Solution in Water (Thermo, H3570), -Cellstain (registered trademark)-Calcein-AM solution (1 mg/mL DMSO solution) (DOJINDO, C396), and -Cellstain (registered trademark)-PI solution (DOJINDO, P378) were each added to RPMI (10% FBS) culture medium in a volume amount of 1/1,000 at the final concentration, and live/dead staining of the cells were performed by allowing to stand at room temperature for 1 hour, and imaging was performed using a confocal microscope (Yokogawa Electric Corporation, CQ1). The number of viable cells was calculated from the imaging data, and the cell proliferation-promoting effect was evaluated according to the following evaluation criteria. The number of viable cells in the negative control was about 100 cells/well. The evaluation result preferably satisfies the evaluation criteria A, B, or C.
(§4) At an addition concentration of the cyclic peptide complex having the largest number of viable cells, evaluation criteria is as follows.

[2] = system: BaF3 cells stably expressing FGFR (avian); experiment: BaF3 cell proliferation-promoting effect; type: cell-based; conditions: number of viable cells at the addition concentration (0.001 to 10 nmol/L) giving the largest number; 2 nights; negative control about 100 cells/well
Experimental: as §1, §2, §3, §4

[3] = system: BaF3 cells stably expressing FGFR (porcine); experiment: BaF3 cell proliferation-promoting effect; type: cell-based; conditions: number of viable cells at the addition concentration (0.001 to 10 nmol/L) giving the largest number; 2 nights; negative control about 100 cells/well
Experimental: as §1, §2, §3, §4

[4] = system: BaF3 cells stably expressing FGFR (human); experiment: BaF3 cell proliferation-promoting effect; type: cell-based; conditions: number of viable cells at the addition concentration (0.001 to 10 nmol/L) giving the largest number; 2 nights; negative control about 100 cells/well
Experimental: as §1, §2, §3, §4

[5] = Molecular stability after alkali treatment, LC; type: physicochemical; conditions: 0.5 mol/L sodium hydroxide aqueous solution added, room temperature, 3 hours
Experimental: In addition, the stability of the cyclic peptide (SEQ ID NO: 450) containing a cysteine residue in the cyclized portion and the cyclic peptide (SEQ ID NO: 442) containing a homocysteine residue in the cyclized portion was compared under the following alkali treatment, which is a more severe condition.
The alkali treatment was performed by the following method. 25 μL of a 0.2 mg/ml cyclic peptide aqueous solution was prepared, 58.8 μL of a 0.5 mol/L sodium hydroxide aqueous solution was added to the aqueous solution, and the mixture was incubated at room temperature for 3 hours to obtain an aqueous solution of the cyclic peptide alkali-treated. The total area of all the peaks in LC/MS of the cyclic peptide before the alkali treatment was set to 100%, and the proportion of the total area of all the peaks in LC/MS of the aqueous solution of the cyclic peptide alkali-treated was determined to calculate the residual rate of the cyclic peptide.
The LC conditions used for the evaluation of molecular stability are the same as those in the measurement of the above-described cyclic peptide treated with a reducing agent.

Row | Substance | Evaluation result of cell proliferative properties Bovine [1] | Evaluation result of cell proliferative properties Avian [2] | Evaluation result of cell proliferative properties Porcine [3] | Evaluation result of cell proliferative properties Human [4] | residual rate of the cyclic peptide [5] [%]
1 | 457 (QCPQNFINPVQWRYFQHYKNKQCPQNFINPVQWRYFQHYKNK; also: cyclic peptide) [compound 457] | A (The number of viable cells is 1,000 cells/well or more.) | A (The number of viable cells is 1,000 cells/well or more.) | A (The number of viable cells is 1,000 cells/well or more.) | A (The number of viable cells is 1,000 cells/well or more.) | 
2 | 455 (KCPQNFINPVQWRYFQHYKNGSGSGSSGSSSGSSKCPQNFINPVQWRYFQHYKN; also: cyclic peptide) [compound 455] | B (The number of viable cells is 400 cells/well or more and less than 1,000 cells/well.) | C (The number of viable cells is 200 cells/well or more and less than 400 cells/well.) | A (The number of viable cells is 1,000 cells/well or more.) | A (The number of viable cells is 1,000 cells/well or more.) | 
3 | Y-(C)-EENYLDPEQYQYFIYF-(K(acetyl))-YKKK (YCEENYLDPEQYQYFIYFK(COCH2)YKKK; thioether 2-19) [SEQ ID NO: 450] |  |  |  |  | 36
4 | 460 (YCEENYLDPEQYQYFIYFKYKYCEENYLDPEQYQYFIYFKYK; also: cyclic peptide) [compound 460] | A (The number of viable cells is 1,000 cells/well or more.) | A (The number of viable cells is 1,000 cells/well or more.) | A (The number of viable cells is 1,000 cells/well or more.) | A (The number of viable cells is 1,000 cells/well or more.) | 
5 | Y-(Hcy)-EENYLDPEQYQYFIYF-(K(acetyl))-YKKK (YXEENYLDPEQYQYFIYFKYKKK; homocysteine, acetyl-lysine; Description of Artificial Sequence: Cyclic peptide) [SEQ ID NO: 442] |  |  |  |  | 61
6 | 458 (QCPQNFINPVQWRYFQHYKNKQCPQNFINPVQWRYFQHYKNK; also: cyclic peptide) [compound 458] | A (The number of viable cells is 1,000 cells/well or more.) | A (The number of viable cells is 1,000 cells/well or more.) | A (The number of viable cells is 1,000 cells/well or more.) | A (The number of viable cells is 1,000 cells/well or more.) | 
7 | 459 (QCPQNFINPVQWRYFQHYKNQCPQNFINPVQWRYFQHYKNK; also: cyclic peptide) [compound 459] | B (The number of viable cells is 400 cells/well or more and less than 1,000 cells/well.) | B (The number of viable cells is 400 cells/well or more and less than 1,000 cells/well.) | A (The number of viable cells is 1,000 cells/well or more.) | A (The number of viable cells is 1,000 cells/well or more.) | 
8 | 456 (QCPQNFINPVQWRYFQHYKNKQCPQNFINPVQWRYFQHYKNK; also: cyclic peptide) [compound 456] | A (The number of viable cells is 1,000 cells/well or more.) | A (The number of viable cells is 1,000 cells/well or more.) | A (The number of viable cells is 1,000 cells/well or more.) | A (The number of viable cells is 1,000 cells/well or more.) | 
